These results are taken from ChEMBL document CHEMBL3352322, “Synthesis and biological evaluation of 3-phenethylazetidine derivatives as triple reuptake inhibitors” (Bioorg Med Chem Lett, 2014).

Bounds are passed on as bounds.

The term inhibition denotes the drop in the measured response relative to a control, in per cent. One may read the IC50 as the midpoint of a concentration-inhibition curve. Low readings indicate higher potency, high ones lower potency.

Some targets named below: Cytochrome P450 2C9 (Homo sapiens, UniProt P11712); Cytochrome P450 2D6 (Homo sapiens, UniProt P10635); Cytochrome P450 2C19 (Homo sapiens, UniProt P33261); Cytochrome P450 3A4 (Homo sapiens, UniProt P08684).
Series [1] concerns the target T1, Sodium-dependent serotonin transporter (Homo sapiens, UniProt P31645). Conditions: HEK293, at 0.1 µM.
Target sequence in this assay (P31645 whole entry, looked up): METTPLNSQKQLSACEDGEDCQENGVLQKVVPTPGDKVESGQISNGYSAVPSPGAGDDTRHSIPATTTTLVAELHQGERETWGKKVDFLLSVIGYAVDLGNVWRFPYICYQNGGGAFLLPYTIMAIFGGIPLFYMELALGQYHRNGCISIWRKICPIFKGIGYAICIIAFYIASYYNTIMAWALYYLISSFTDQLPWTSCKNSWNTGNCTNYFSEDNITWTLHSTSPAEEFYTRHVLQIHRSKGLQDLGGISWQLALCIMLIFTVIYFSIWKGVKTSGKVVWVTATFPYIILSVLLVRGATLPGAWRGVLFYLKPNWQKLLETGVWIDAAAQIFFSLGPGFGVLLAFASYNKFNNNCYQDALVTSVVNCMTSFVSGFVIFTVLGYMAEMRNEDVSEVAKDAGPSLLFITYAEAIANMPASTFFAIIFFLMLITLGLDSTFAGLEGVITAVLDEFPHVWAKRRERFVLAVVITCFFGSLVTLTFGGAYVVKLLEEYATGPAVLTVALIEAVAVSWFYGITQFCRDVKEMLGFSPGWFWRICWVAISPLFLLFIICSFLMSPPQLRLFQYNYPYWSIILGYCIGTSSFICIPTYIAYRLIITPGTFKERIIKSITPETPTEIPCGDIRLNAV
For series [2], the target named is T2, Sodium-dependent noradrenaline transporter (Homo sapiens, UniProt P23975). Put plainly: Ratio of venlafaxine IC50 to compound IC50 for norepinephrine reuptake at human NET expressed in HEK293 cells at 0.1 uM after 15 mins by fluorescence neurotransmitter transporter assay. Format: cell-based.
T2 sequence (P23975 whole entry): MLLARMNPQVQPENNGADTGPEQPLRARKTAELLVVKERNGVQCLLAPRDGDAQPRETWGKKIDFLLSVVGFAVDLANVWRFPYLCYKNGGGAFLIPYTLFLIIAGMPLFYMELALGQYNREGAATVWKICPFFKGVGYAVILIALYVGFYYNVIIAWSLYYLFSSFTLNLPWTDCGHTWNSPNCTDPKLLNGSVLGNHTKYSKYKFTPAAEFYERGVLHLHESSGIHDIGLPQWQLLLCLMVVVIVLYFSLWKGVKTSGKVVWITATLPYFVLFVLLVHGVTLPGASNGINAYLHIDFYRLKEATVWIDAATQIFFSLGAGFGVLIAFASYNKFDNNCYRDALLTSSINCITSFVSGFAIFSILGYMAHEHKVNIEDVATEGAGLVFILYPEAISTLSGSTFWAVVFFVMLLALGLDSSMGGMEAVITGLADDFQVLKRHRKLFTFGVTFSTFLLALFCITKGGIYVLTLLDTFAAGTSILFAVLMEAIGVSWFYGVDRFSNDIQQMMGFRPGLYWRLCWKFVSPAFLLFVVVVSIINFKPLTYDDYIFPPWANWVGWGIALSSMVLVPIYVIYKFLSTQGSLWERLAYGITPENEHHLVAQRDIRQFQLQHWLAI
Series [3] addresses T2, Sodium-dependent noradrenaline transporter.
Series [4] addresses T1, Sodium-dependent serotonin transporter. Conditions: HEK293, at 1 µM.
Target sequence in this assay (P31645 whole entry, looked up): as the sequence (P31645 whole entry, looked up) above
The target in a further series is T3, Cytochrome P450 1A2 (Homo sapiens, UniProt P05177).
T3 sequence (P05177 whole entry): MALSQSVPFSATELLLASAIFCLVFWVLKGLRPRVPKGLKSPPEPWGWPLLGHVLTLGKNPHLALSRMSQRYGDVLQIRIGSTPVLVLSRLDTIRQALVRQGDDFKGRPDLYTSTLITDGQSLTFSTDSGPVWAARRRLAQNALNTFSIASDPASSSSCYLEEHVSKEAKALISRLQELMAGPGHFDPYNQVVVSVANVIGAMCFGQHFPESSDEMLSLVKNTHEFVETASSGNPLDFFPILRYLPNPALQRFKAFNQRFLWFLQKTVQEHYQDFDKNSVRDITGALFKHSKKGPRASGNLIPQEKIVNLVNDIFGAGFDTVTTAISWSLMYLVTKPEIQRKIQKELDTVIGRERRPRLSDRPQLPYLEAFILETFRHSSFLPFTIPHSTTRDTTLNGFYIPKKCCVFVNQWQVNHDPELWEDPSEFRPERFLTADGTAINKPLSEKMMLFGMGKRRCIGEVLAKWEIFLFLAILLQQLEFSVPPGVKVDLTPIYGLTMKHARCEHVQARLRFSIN

The target in series [5] is T1, Sodium-dependent serotonin transporter. Conditions: HEK293, at 10 µM.
Target sequence in this assay (P31645 whole entry, looked up): as the sequence (P31645 whole entry, looked up) above
Series [6] deals with T2, Sodium-dependent noradrenaline transporter. Put plainly: Ratio of duloxetine IC50 to compound IC50 for norepinephrine reuptake at human NET expressed in HEK293 cells at 0.1 uM after 15 mins by fluorescence neurotransmitter transporter assay. Format: cell-based.
The target of series [7] is T1, Sodium-dependent serotonin transporter. It counts as cell-based, HEK293.
Target sequence in this assay (P31645 whole entry): as the sequence (P31645 whole entry, looked up) above
Series [8] is described as follows: Stability in human liver microsomes assessed as compound remaining at 1 uM after 30 mins by LC/MS analysis. It counts as ADME. The conditions noted are these: read-out: Stability.
The target in series [9] is Sodium-dependent dopamine transporter (Homo sapiens, UniProt Q01959).
For series [10], the target named is T1, Sodium-dependent serotonin transporter. Put plainly: Ratio of duloxetine IC50 to compound IC50 for serotonin reuptake at human SERT expressed in HEK293 cells at 0.1 uM after 15 mins by fluorescence neurotransmitter transporter assay. It counts as cell-based.
Target sequence in this assay (P31645 whole entry, looked up): as the sequence (P31645 whole entry, looked up) above
The target is the same in series [11]. Nature of the series: Ratio of venlafaxine IC50 to compound IC50 for serotonin reuptake at human SERT expressed in HEK293 cells at 0.1 uM after 15 mins by fluorescence neurotransmitter transporter assay. Format: cell-based.
Target sequence in this assay (P31645 whole entry, looked up): as the sequence (P31645 whole entry, looked up) above
The next series has as its target CYP2D6 (Homo sapiens, UniProt P10635). Nature of the series: in vitro. The conditions noted are these: recombinant CYP2D6.
In another series the target is CYP3A4 (Homo sapiens, UniProt P08684). Nature of the series: in vitro. The conditions noted are these: recombinant CYP3A4.
Chain of CYP3A4 (P08684 whole entry): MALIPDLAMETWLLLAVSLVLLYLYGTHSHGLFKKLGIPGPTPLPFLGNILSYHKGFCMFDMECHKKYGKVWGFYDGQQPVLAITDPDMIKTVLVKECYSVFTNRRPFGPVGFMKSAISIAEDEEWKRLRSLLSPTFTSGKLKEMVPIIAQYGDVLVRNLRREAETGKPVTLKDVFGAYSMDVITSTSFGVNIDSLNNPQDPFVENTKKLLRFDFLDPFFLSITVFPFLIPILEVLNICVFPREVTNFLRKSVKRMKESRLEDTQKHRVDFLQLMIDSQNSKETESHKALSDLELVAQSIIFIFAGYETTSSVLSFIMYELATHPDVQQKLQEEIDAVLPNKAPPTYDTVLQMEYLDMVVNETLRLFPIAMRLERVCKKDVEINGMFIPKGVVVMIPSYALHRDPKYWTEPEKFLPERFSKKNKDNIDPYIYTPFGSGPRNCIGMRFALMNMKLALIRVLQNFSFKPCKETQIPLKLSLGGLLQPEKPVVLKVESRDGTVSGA
The next series has as its target T4, CYP1A2 (Homo sapiens, UniProt P05177).
T4 sequence (P05177 whole entry): T3 sequence (P05177 whole entry)
Put plainly: in vitro. Conditions: recombinant CYP1A2.

The target in another series is CYP2C9 (Homo sapiens, UniProt P11712). Put plainly: in vitro. The conditions noted are these: recombinant CYP2C9.
Chain of CYP2C9 (P11712 whole entry): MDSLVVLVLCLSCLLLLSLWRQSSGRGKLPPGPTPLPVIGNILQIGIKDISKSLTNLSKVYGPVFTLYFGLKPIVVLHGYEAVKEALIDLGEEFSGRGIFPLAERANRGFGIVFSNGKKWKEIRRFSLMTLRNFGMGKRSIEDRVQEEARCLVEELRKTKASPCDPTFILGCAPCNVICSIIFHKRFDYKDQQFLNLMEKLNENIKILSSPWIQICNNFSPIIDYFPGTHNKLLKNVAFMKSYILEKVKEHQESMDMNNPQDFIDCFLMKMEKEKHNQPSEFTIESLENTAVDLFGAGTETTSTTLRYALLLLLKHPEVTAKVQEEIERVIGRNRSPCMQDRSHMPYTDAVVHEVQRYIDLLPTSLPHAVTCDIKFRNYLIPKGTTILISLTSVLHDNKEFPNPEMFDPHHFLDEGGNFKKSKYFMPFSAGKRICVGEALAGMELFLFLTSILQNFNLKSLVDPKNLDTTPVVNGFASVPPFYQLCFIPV
A further series deals with CYP2C19 (Homo sapiens, UniProt P33261). Nature of the series: in vitro. Conditions: recombinant CYP2C19.
Chain of CYP2C19 (P33261 whole entry): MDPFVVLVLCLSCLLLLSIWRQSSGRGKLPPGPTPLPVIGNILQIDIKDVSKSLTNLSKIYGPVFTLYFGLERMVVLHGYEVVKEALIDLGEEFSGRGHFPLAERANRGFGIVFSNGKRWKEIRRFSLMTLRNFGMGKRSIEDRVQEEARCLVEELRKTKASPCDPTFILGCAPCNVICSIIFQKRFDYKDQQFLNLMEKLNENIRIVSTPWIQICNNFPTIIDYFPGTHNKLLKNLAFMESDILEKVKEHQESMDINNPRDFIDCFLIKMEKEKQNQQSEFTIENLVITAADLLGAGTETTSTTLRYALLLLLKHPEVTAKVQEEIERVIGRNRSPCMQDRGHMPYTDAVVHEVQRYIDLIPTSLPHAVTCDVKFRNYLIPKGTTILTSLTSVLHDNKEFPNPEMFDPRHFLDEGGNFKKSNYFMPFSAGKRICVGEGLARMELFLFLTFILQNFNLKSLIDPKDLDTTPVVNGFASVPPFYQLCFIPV
The target of series [12] is Voltage-gated inwardly rectifying potassium channel KCNH2 (Homo sapiens, UniProt Q12809). Nature of the series: Inhibition of human ERG expressed in CHO-K1 cells by patch-clamp electrophysiology method. Format: cell-based. (In general: The patch-clamp technique gives a direct electrical read-out from membranes.)

Chain of Cytochrome P450 2C19 (P33261 whole entry): as above
Chain of Cytochrome P450 3A4 (P08684 whole entry): as the sequence (P08684 whole entry) above
Chain of Cytochrome P450 2C9 (P11712 whole entry): as the sequence (P11712 whole entry) above

Take `Fc1ccc(OC(CC2CNC2)c2ccc(Cl)c(F)c2)cc1` (centres undefined): the inhibition in series [1] was 72%; in series [4], 100%; in [5] it was 100%. The concentration for half-maximal inhibition (IC50) turned out to be 2400 nM at Cytochrome P450 2C9; 32.5 nM in series [3]; 19 µM against Cytochrome P450 1A2; 58.1 nM in [7]; 143 nM in series [9]; 1000 nM on Cytochrome P450 2D6. Further, the concentration for half-maximal inhibition (IC50) worked out at 1300 nM on Cytochrome P450 2C19 and 400 nM against Cytochrome P450 3A4. Also, the Ratio IC50 in series [2], in series [6], in series [10] and in series [11] was greater than 7 throughout. The remaining at 0.5 h, 1 µM in [8] is 85%.
For the compound `Cc1ccccc1OC(CC1CNC1)c1ccc(Cl)c(F)c1` (centres undefined), the inhibition at 10 µM turned out to be 15% at CYP2D6; 16% at CYP3A4; 55% on CYP1A2; 32% at CYP2C9; 14% on CYP2C19. Moreover, the figures for the inhibition in [1], in series [4] and in series [5] were 94%, 100% and 100%, respectively. Also, the half-maximal inhibitory concentration (IC50) in [3] was 68.6 nM; in [7], 37.7 nM; in series [9] it was 162 nM. Besides, the remaining at 0.5 h, 1 µM in [8] was determined as 59%.
Take `Cc1ccc(OC(CC2CNC2)c2ccc(Cl)c(F)c2)cc1` (centres undefined): the inhibition at 10 µM on CYP2D6 was 10%; at CYP3A4, 13%; at CYP1A2, 44%; on CYP2C9, 19%; on CYP2C19, 7.6%. Besides, the inhibition in series [1] was found to be 97%; in series [4] it was 100%; in series [5] it was 100%. In addition, the 50% inhibitory concentration (IC50) was determined as 33.1 nM in [3], 38.5 nM in [7] and 110 nM in [9]. Moreover, in series [8], the remaining at 0.5 h, 1 µM came out at 59%.
Regarding `Fc1cc(C(CC2CNC2)Oc2ccccc2F)ccc1Cl` (centres undefined), the inhibition at 10 µM came out at 9.6% at CYP2D6; 7.2% on CYP3A4; 33% at CYP1A2; 12% at CYP2C9; 7% on CYP2C19. Besides, the inhibition in [1] is 77%; in [4] it was 100%; in series [5], 100%. For the same compound, the concentration for half-maximal inhibition (IC50) against Cytochrome P450 2C9 stood at 2200 nM; in [12], 1410 nM; in series [3] it was 15.9 nM; on Cytochrome P450 1A2, 44 µM; in [7], 46.3 nM; in series [9], 63.9 nM. The half-maximal inhibitory concentration (IC50) at Cytochrome P450 2D6 turned out to be 8700 nM; on Cytochrome P450 2C19, 250 nM; against Cytochrome P450 3A4, 710 nM. Further, the Ratio IC50 in series [2], in [6], in series [10] and in series [11] was greater than 7 in each case. In series [8], the remaining at 0.5 h, 1 µM is 71%.
Regarding `Fc1cccc(OC(CC2CNC2)c2ccc(Cl)c(F)c2)c1` (centres undefined), the inhibition at 10 µM at CYP2D6 is 13%; on CYP3A4, 11%; at CYP1A2, 30%; on CYP2C9, 11%; at CYP2C19, 6.4%. Also, the figures for the inhibition in [1], in [4] and in [5] were 98%, 100% and 100%, respectively. The IC50 came out at 3100 nM on Cytochrome P450 2C9; 1460 nM in [12]; 14.6 nM in series [3]; 13 µM on Cytochrome P450 1A2; 36.6 nM in series [7]; 35.6 nM in series [9]. In addition, the half-inhibitory concentration (IC50) on Cytochrome P450 2D6 is 4000 nM; at Cytochrome P450 2C19 it was 210 nM; against Cytochrome P450 3A4, 510 nM. Besides, the Ratio IC50 in series [2], in series [6], in series [10] and in [11] was greater than 7 each time. Besides, the remaining at 0.5 h, 1 µM in [8] was determined as 73%.
Regarding `Fc1cc(C(CC2CNC2)Oc2cccc(Cl)c2)ccc1Cl` (centres undefined), the inhibition at 10 µM at CYP2D6 was determined as 7.9%; at CYP3A4, 13%; at CYP1A2, 40%; on CYP2C9 it was 4.2%; on CYP2C19 it was 3.3%. In addition, the values for the inhibition in [1], in [4] and in [5] were 87%, 100% and 100%, respectively. For the same compound, the IC50 came out at 1100 nM against Cytochrome P450 2C9; 30 nM in series [3]; 15 µM against Cytochrome P450 1A2; 47.1 nM in [7]; 82.5 nM in series [9]; 530 nM against Cytochrome P450 2D6. Further, the half-inhibitory concentration (IC50) against Cytochrome P450 2C19 came to 250 nM; against Cytochrome P450 3A4, 600 nM. Moreover, the Ratio IC50 in series [2], in series [6], in series [10] and in [11] was greater than 7 throughout. The remaining at 0.5 h, 1 µM in series [8] is 57%.
Take `Fc1cc(C(CC2CNC2)Oc2ccccc2Cl)ccc1Cl` (centres undefined): the inhibition at 10 µM on CYP2D6 stood at 12%; at CYP3A4, 13%; at CYP1A2, 76%; on CYP2C9, 18%; on CYP2C19, 7.4%. In addition, the values for the inhibition in [1], in series [4] and in series [5] were 82%, 100% and 100%, respectively. The IC50 in [3] amounted to 30.8 nM; in series [7], 37.5 nM; in [9], 164 nM. In addition, the remaining at 0.5 h, 1 µM in series [8] is 89%.
With `Cc1cccc(OC(CC2CNC2)c2ccc(Cl)c(F)c2)c1` (centres undefined), the inhibition at 10 µM at CYP2D6 worked out at 12%; on CYP3A4, 12%; at CYP1A2 it was 58%; on CYP2C9 it was 6.8%; on CYP2C19, 5.5%. For the same compound, the inhibition in series [1], in [4] and in series [5] was 100% in each case. Further, the IC50 came out at 14.7 nM in series [3], 23 nM in series [7] and 80.4 nM in [9]. The remaining at 0.5 h, 1 µM in [8] was determined as 36%.
